Tests used:
[1] = system: smallflower flatsedge; assay: Test B flood test smallflower flatsedge; assay type: in vivo, Cyperus difformis
Method in brief: (§1)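 Plants were grown to the 2-leaf stage before treatment with test chemical, then held in a greenhouse for twelve to sixteen days. Injury was visually rated against untreated controls on a 0–10 scale, where 0 is no effect and 10 is complete control.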

[2] = system: rape; assay: Test B pre/postemergence rape; assay type: in vivo, Brassica napus
Method in brief: (§2)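 Herbicidal effect was estimated by eye on a ten-point control scale after plants spent twelve to sixteen days in a greenhouse following soil or foliar treatment. Foliar sprays targeted plants at one to four leaves; all doses were formulated in a non-phytotoxic solvent with surfactant.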

[3] = system: corn; assay: Test B pre/postemergence corn; assay type: in vivo, Zea mays
Method in brief: as §2

[4] = system: surinam grass; assay: Test B pre/postemergence surinam grass; assay type: in vivo, Brachiaria decumbens
Method in brief: as §2

[5] = system: bamyardgrass; assay: Test B flood test barnyardgrass; assay type: in vivo, Echinochloa crus-galli
Method in brief: as §1

[6] = system: purple nutsedge; assay: Test B pre/postemergence purple nutsedge; assay type: in vivo, Cyperus rotundus
Method in brief: as §2

[7] = system: pigweed; assay: Test B pre/postemergence pigweed; assay type: in vivo, Amaranthus retroflexus
Method in brief: as §2

[8] = system: blackgrass; assay: Test B pre/postemergence blackgrass; assay type: in vivo, Alopecurus myosuroides
Method in brief: as §2

[9] = system: soybean; assay: Test B pre/postemergence soybean; assay type: in vivo, Glycine max
Method in brief: as §2

[10] = system: crabgrass; assay: Test B pre/postemergence crabgrass; assay type: in vivo, Digitaria sanguinalis
Method in brief: as §2

[11] = system: giant foxtail; assay: Test B pre/postemergence giant foxtail; assay type: in vivo, Setaria faberii
Method in brief: as §2

[12] = system: wheat; assay: Test B pre/postemergence wheat; assay type: in vivo, Triticum aestivum
Method in brief: as §2

[13] = system: cocklebur; assay: Test B pre/postemergence cocklebur; assay type: in vivo, Xanthium strumarium
Method in brief: as §2

[14] = system: rice; assay: Test B flood test rice; assay type: in vivo, Oryza sativa
Method in brief: as §1

[15] = system: duck salad; assay: Test B flood test duck salad; assay type: in vivo, Heteranthera limosa
Method in brief: as §1

[16] = system: sugar beet; assay: Test B pre/postemergence sugar beet; assay type: in vivo, Beta vulgaris
Method in brief: as §2

[17] = Rate 62 g/ha, headed Pre-emergence (flood test species), scale 0 to 10 (0 no effect, 10 complete control)
[18] = Rate 125 g/ha, Pre-emergence, flood test species, scale 0 to 10 where 0 is no effect and 10 is complete control
[19] = Rate 250 g/ha, Pre-emergence, flood-test species, scale 0 to 10, 0 is no effect, 10 is complete control
[20] = Rate 500 g/ha, Pre-emergence, flood test species, scale 0 to 10 (0 no effect, 10 complete control)
[21] = Preemergence, Rate 62 g/ha, scale of 0 to 10 where 0 is no effect and 10 is complete control
[22] = Preemergence, Rate 250 g/ha, scale of 0 to 10 where 0 is no effect and 10 is complete control
[23] = Preemergence, Rate 500 g/ha, scale of 0 to 10 where 0 is no effect and 10 is complete control
[24] = Rate 62 g/ha, Postemergence, scale of 0 to 10 where 0 is no effect and 10 is complete control
[25] = Rate 125 g/ha, Preemergence, scale of 0 to 10 where 0 is no effect and 10 is complete control
[26] = Rate 500 g/ha, Postemergence, scale 0 to 10, 0 no effect, 10 complete control
[27] = Rate 125 g/ha, Postemergence, scale 0 to 10

Compound: CC(C)N(C(=O)n1oc(=O)n(C2CC2)c1=O)c1ccc(F)cc1 [Compound 242]
- S. Flatsedge plant response rating [1, 17]: 0
- S. Flatsedge plant response rating [1, 18]: 0
- S. Flatsedge plant response rating [1, 19]: 0
- S. Flatsedge plant response rating [1, 20]: 0
- Rape plant response rating [2, 21]: 0
- Rape plant response rating [2, 22]: 10
- Plant response rating, Rape [2, 23]: 10
- Rape plant response rating [2, 24]: 0
- Rape plant response rating [2, 25]: 6
- Plant response rating (0 to 10; 0 is no effect, 10 is complete control), Rape ([2]; Rate 250 g/ha, Postemergence): 4
- Rape plant response rating [2, 26]: 8
- Corn plant response rating [3, 21]: 0
- Corn plant response rating [3, 22]: 6
- Plant response rating, Corn [3, 23]: 9
- Corn plant response rating [3, 24]: 0
- Corn plant response rating [3, 25]: 0
- Plant response rating (0 to 10; 0 is no effect, 10 is complete control), Corn ([3]; Rate 250 g/ha, Postemergence): 0
- Corn plant response rating [3, 26]: 6
- B. signalgrass plant response rating [4, 21]: 6
- B. signalgrass plant response rating [4, 22]: 9
- Plant response rating, B. signalgrass [4, 23]: 10
- B. signalgrass plant response rating [4, 24]: 1
- B. signalgrass plant response rating ([4]; Rate 125 g/ha, Postemergence, scale 0 (no effect) to 10 (complete control)): 8
- B. signalgrass plant response rating [4, 25]: 9
- Plant response rating (0 to 10; 0 is no effect, 10 is complete control), B. signalgrass ([4]; Rate 250 g/ha, Postemergence): 8
- B. signalgrass plant response rating [4, 26]: 9
- Barnyardgrass plant response rating [5, 17]: 0
- Barnyardgrass plant response rating [5, 18]: 0
- Barnyardgrass plant response rating [5, 19]: 0
- Barnyardgrass plant response rating [5, 20]: 0
- Nutsedge plant response rating [6, 21]: 10
- Nutsedge plant response rating [6, 22]: 10
- Plant response rating, Nutsedge [6, 23]: 10
- Nutsedge plant response rating [6, 24]: 0
- Nutsedge plant response rating [6, 25]: 10
- Nutsedge plant response rating [6, 26]: 5
- Redroot pigweed plant response rating [7, 21]: 9
- Redroot pigweed plant response rating [7, 22]: 10
- Plant response rating, Redroot pigweed [7, 23]: 10
- Redroot pigweed plant response rating [7, 24]: 0
- Redroot pigweed plant response rating [7, 25]: 10
- Plant response rating (0 to 10; 0 is no effect, 10 is complete control), Redroot pigweed ([7]; Rate 250 g/ha, Postemergence): 4
- Redroot pigweed plant response rating [7, 26]: 8
- Blackgrass plant response rating [8, 21]: 9
- Blackgrass plant response rating [8, 22]: 10
- Plant response rating, Blackgrass [8, 23]: 10
- Blackgrass plant response rating [8, 24]: 8
- Blackgrass plant response rating [8, 27]: 9
- Blackgrass plant response rating [8, 25]: 10
- Plant response rating (0 to 10; 0 is no effect, 10 is complete control), Blackgrass ([8]; Rate 250 g/ha, Postemergence): 9
- Blackgrass plant response rating [8, 26]: 9
- Soybean plant response rating [9, 21]: 0
- Soybean plant response rating [9, 22]: 6
- Plant response rating, Soybean [9, 23]: 7
- Soybean plant response rating [9, 24]: 4
- Soybean plant response rating [9, 25]: 2
- Soybean plant response rating [9, 26]: 6
- Crabgrass plant response rating [10, 21]: 9
- Crabgrass plant response rating [10, 22]: 10
- Plant response rating, Crabgrass [10, 23]: 10
- Crabgrass plant response rating [10, 24]: 8
- Crabgrass plant response rating [10, 25]: 10
- Plant response rating (0 to 10; 0 is no effect, 10 is complete control), Crabgrass ([10]; Rate 250 g/ha, Postemergence): 9
- Crabgrass plant response rating [10, 26]: 9
- Giant foxtail plant response rating [11, 21]: 10
- Giant foxtail plant response rating [11, 22]: 10
- Plant response rating, Giant foxtail [11, 23]: 10
- Giant foxtail plant response rating [11, 24]: 7
- Giant foxtail plant response rating [11, 25]: 10
- Plant response rating (0 to 10; 0 is no effect, 10 is complete control), Giant foxtail ([11]; Rate 250 g/ha, Postemergence): 8
- Giant foxtail plant response rating [11, 26]: 9
- Wheat plant response rating [12, 21]: 5
- Wheat plant response rating [12, 22]: 9
- Plant response rating, Wheat [12, 23]: 10
- Wheat plant response rating [12, 24]: 4
- Wheat plant response rating [12, 25]: 7
- Wheat plant response rating [12, 26]: 8
- Cocklebur plant response rating [13, 21]: 2
- Cocklebur plant response rating [13, 22]: 2
- Plant response rating, Cocklebur [13, 23]: 3
- Cocklebur plant response rating [13, 24]: 5
- Cocklebur plant response rating [13, 27]: 5
- Plant response rating (0 to 10; 0 is no effect, 10 is complete control), Cocklebur ([13]; Rate 250 g/ha, Postemergence): 7
- Cocklebur plant response rating [13, 26]: 7
- Rice plant response rating [14, 17]: 0
- Rice plant response rating [14, 18]: 0
- Rice plant response rating [14, 19]: 0
- Rice plant response rating [14, 20]: 0
- Ducksalad plant response rating [15, 17]: 0
- Ducksalad plant response rating [15, 18]: 0
- Ducksalad plant response rating [15, 19]: 0
- Ducksalad plant response rating [15, 20]: 0
- Sugarbeets plant response rating [16, 21]: 3
- Plant response rating, Sugarbeets [16, 23]: 8
- Sugarbeets plant response rating [16, 24]: 0
- Sugarbeets plant response rating [16, 25]: 7
- Sugarbeets plant response rating [16, 26]: 8

— patent US6737383B1, “Herbicidal oxadiazolidines” (priority 1999, dated 2004)
